Laboratory results as given in patent publication US7186701B2, “Dehydrating agent and method for dehydrating moist article using the agent and dehydrated article obtained by the method” (Kabushiki Kaisha Hayashibara Seibutsu Kagaku Kenkyujo, priority 2001, dated 2007).

How the values were obtained:
[1] = Saturation concentration of cyclotetrasaccharide in water; type: physicochemical
Text: The resulting each saturated solution of cyclotetrasaccharide was membrane filtered to remove undissolved cyclotetrasaccharide, and each filtrate was then examined for moisture content by the drying loss method to determine a saturation concentration of cyclotetrasaccharide at respective temperatures.

[2] = Amino carbonyl reaction with glycine; type: physicochemical; settings: 10% (w/v) with 1% (w/v) glycine, pH 7.0, 120° C.
Procedure: (§1) Four milliliter aliquots of the resulting solution were placed in glass test tubes, sealed, and heated at 120° C. for 30 to 90 min. After allowing to stand for cooling at ambient temperature, each of the resulting solutions was measured for coloration degree to examine their amino carbonyl reactivity. The coloration degree was evaluated based on the absorbance in a cell with 1-cm light pass at a wavelength of 480 nm.

[3] = Amino carbonyl reaction with polypeptone; type: physicochemical; settings: 10% (w/v) with 5% (w/v) polypeptone, 100° C., minus control
Procedure: as §1, with “100°” for “120°”, “solution” for “solutions”, “reactivity. In parallel, as a control, a solution with only polypeptone was provided and treated similarly as above.” for “reactivity.”, “level of the absorbance, which had been measured” for “absorbance”, “nm, minused that of the control.” for “nm.”

Inclusion action = type: physicochemical
Procedure: To 100 g aliquots of the aqueous solution was added 2 g of methanol, 3 g of ethanol, or 4.6 g acetic acid to be included by the cyclotetrasaccharide. Thereafter, each of the resulting solutions was filtered to remove non-inclusion products, and the filtrates were dried in vacuo. As a control, similar inclusion products were prepared by using “ISOELITE™ P”, a branched cyclodextrin commercialized by Maruha K.K., Tokyo, Japan, which were known to have inclusion ability.
To measure the amount of the inclusion products in the resulting lyophilized powders, one gram of each of the powders was dissolved in five milliliters of water and extracted after admixing with five milliliters of diethylether. The extraction was repeated, and the resulting extracts were quantified on gas chromatography.

[4] = tested on: internal content of rat cecum; test: Fermentation test; type: in vitro ADME
Procedure: The internal content of rat cecum was collected by anesthetizing a Wister male rat with ether, anatomizing the rat, collecting the internal content under anaerobic conditions, and suspending the resultant with 4-fold volumes of a 0.1 M aqueous solution of sodium bicarbonate. The cyclotetrasaccharide was added to the internal content of rat cecum in an amount of about 7% by weight, and the levels of cyclotetrasaccharide remained just after and 12 hours after the addition of the internal content were quantified on gas chromatography.

[5] = tested on: Bifidobacterium adolescentis JCM 1275; test: Assimilation test; type: cell-based; settings: 0.5% saccharide in PYF medium, 37° C., four days, anaerobic
[6] = tested on: Lactobacillus acidophilus JCM 1132; test: Assimilation test; type: cell-based; settings: 0.5% saccharide in PYF medium, 37° C., four days, anaerobic
mice = test: Acute toxicity test, oral; type: in vivo; settings: oral administration to mice
Text: Based on this, the LD50 of cyclotetrasaccharide was at least 50 g/kg mouse body weight, though the value was […].

salivary amylase = molecular target: T1, salivary amylase (Homo sapiens, UniProt P0DUB6)
T1 sequence (P0DUB6 16-511): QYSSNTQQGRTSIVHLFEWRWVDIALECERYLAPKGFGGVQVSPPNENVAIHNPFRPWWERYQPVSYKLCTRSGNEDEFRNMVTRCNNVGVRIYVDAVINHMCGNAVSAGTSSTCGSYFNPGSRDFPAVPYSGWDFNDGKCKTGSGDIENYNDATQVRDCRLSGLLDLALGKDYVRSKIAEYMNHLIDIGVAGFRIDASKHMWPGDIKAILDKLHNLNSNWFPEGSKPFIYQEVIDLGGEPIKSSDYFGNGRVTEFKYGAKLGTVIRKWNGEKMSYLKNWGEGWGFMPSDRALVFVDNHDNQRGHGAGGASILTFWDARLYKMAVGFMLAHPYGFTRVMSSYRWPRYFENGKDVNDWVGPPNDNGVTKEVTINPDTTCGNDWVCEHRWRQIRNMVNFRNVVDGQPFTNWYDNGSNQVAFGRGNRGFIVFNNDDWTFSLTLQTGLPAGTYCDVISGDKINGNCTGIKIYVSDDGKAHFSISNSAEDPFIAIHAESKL

amylopsin = molecular target: T2, amylopsin (Homo sapiens, UniProt P04746)
T2 sequence (P04746 16-511): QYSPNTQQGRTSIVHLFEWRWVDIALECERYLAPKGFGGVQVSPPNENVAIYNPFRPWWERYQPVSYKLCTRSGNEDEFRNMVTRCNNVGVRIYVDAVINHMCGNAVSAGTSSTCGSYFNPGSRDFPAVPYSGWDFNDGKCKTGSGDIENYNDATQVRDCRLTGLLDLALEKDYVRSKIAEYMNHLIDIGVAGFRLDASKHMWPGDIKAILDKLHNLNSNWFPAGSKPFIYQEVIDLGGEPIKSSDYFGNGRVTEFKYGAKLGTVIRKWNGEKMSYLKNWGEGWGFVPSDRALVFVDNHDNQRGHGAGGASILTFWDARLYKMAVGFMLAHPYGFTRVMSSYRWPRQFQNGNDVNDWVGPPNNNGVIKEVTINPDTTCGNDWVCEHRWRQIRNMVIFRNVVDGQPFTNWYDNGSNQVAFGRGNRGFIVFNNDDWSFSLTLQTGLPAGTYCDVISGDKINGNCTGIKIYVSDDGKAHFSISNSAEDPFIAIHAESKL

[7] = tested on: Small intestinal mucosal enzyme

## OCC1OC2OCC3O[C@H](O[C@H]4C(O)C(CO)OC(OCC5O[C@H](O[C@@H](C1O)C2O)C(O)C(O)[C@@H]5O)C4O)C(O)C(O)[C@@H]3O (stereo partly drawn) [cyclotetrasaccharide, cyclo{→6)-α-D-glucopyranosyl-(1→3)-α-D-glucopyranosyl-(1→6)-α-D-glucopyranosyl-(1→3)-α-D-glucopyranosyl-(1→}]
[1]; 10 ° C.
  Saturation concentration (%): 30.3%
[1]; 30 ° C.
  Saturation concentration (%): 34.2%
[1]; 50 ° C.
  Saturation concentration (%): 42.6%
[1]; 70 ° C.
  Saturation concentration (%): 53.0%
[1]; 90 ° C.
  Saturation concentration (%): 70.5%
[2]; heating time 0 min
  Coloration degree (A480 nm): 0.00 A480 nm
[2]; heating time 30 min
  Coloration degree (A480 nm): 0.00 A480 nm
[2]; heating time 60 min
  Coloration degree (A480 nm): 0.00 A480 nm
[2]; heating time 90 min
  Coloration degree (A480 nm): 0.00 A480 nm
[3]; heating time 0 min
  Coloration degree (A480 nm): 0.00 A480 nm
[3]; heating time 30 min
  Coloration degree (A480 nm): 0.00 A480 nm
[3]; heating time 60 min
  Coloration degree (A480 nm): 0.00 A480 nm
[3]; heating time 90 min
  Coloration degree (A480 nm): 0.00 A480 nm
Inclusion action
  inclusion ability relative to that of the branched cyclodextrin by weight: about 2 folds
Inclusion action; inclusion product Acetic acid
  Inclusion amount (mg/g lyophilized powder): 67.74 mg/g lyophilized powder
Inclusion action; inclusion product Ethanol
  Inclusion amount (mg/g lyophilized powder): 17.26 mg/g lyophilized powder
Inclusion action; inclusion product Methanol
  Inclusion amount (mg/g lyophilized powder): 6.71 mg/g lyophilized powder
[4]; 12 hours after the addition
  cyclotetrasaccharide remained intact: 93%
  level of cyclotetrasaccharide remained: 63.0 mg per one gram of the internal content of rat cecum
[4]; just after the addition
  level of cyclotetrasaccharide remained: 68.0 mg per one gram of the internal content of rat cecum
[5]
  Assimilability: − (judged as negative (−) when the post culture had a pH of 6.0 or higher)
[6]
  Assimilability: − (judged as negative (−) when the post culture had a pH of 6.0 or higher)
mice
  LD50: at least 50 g/kg mouse body weight
Salivary amylase
  Decomposition percentage (%) by digestive enzyme: 0.0%
amylopsin
  Decomposition percentage (%) by digestive enzyme: 0.0%
[7]
  Decomposition percentage (%) by digestive enzyme: 0.74%
  digestibility level relative to that of maltitol: ⅕
